Test results: US20250042889A1, “3CLPRO PROTEASE INHIBITOR” (SHANGHAI QILU PHARMACEUTICAL RESEARCH AND DEVELOPMENT …, priority 2021, published 2025)

Biological target: SARS-COV-2 3CLpro/Mpro protease (Severe acute respiratory syndrome coronavirus 2 (2019-nCoV) (SARS-CoV-2), UniProt P0DTD1)
Assay: Inhibitory effect on SARS-COV-2 3CLpro/Mpro protease by fluorescence resonance energy transfer
Format: biochemical
Conditions: activity intervals A-D, read-out: IC50 (nM), Inhibition on SARS-CoV-2 3CLpro/Mpro protease

Row | Compound | IC50 [nM]
1 | CCNc1cncc(C(=O)N2CCC[C@@H](Nc3c(C(=O)N4CCCCC4)cc(Br)cc3[N+](=O)[O-])C2)c1 [Example 260] | 10 to 50
2 | CNc1cncc(C(=O)N2C[C@H](Nc3c(C(=O)N4C[C@H](C)C[C@H](C)C4)cc(Br)cc3[N+](=O)[O-])C3(CC3)C2)c1 [Example 86] | 10 to 50
3 | CNc1cncc(C(=O)N2CC(Nc3c(C(=O)N4C[C@@H](C)N(CCOC)[C@@H](C)C4)cc(Br)cc3[N+](=O)[O-])C(F)(F)C2)c1 (some centres unmarked) [Example 178] | 50 to 100
4 | C[C@@H]1CN(C(=O)c2cc(Br)cc([N+](=O)[O-])c2N[C@@H]2CCCN(C(=O)[C@H]3CC(=O)Nc4ccccc43)C2)CCO1 [Example 282] | 10 to 50
5 | O=C(c1cc(Br)cc(C(F)(F)F)c1N[C@@H]1CCN(C(=O)c2cncc3ccccc23)C1)N1CCCCC1 [Example 48] | 10 to 50
6 | O=C(N[C@H]1CCCC[C@H]1Nc1c(C(=O)N2CCN(CCO)CC2)cc(Br)cc1[N+](=O)[O-])c1cncc2cc(Cl)ccc12 [Example 118] | 10 to 50
7 | CNc1cncc(C(=O)N2CCC[C@@H](Nc3c(C(=O)N4C[C@@H](C)O[C@@H](C(F)(F)F)C4)cc(Br)cc3[N+](=O)[O-])C2)c1 [Example 349] | 10 to 50
8 | C[C@@H]1CN(C(=O)c2cc(Br)cc([N+](=O)[O-])c2N[C@@H]2CCCN(C(=O)c3cc(=O)[nH]c4cc(Cl)ccc34)C2)C[C@H](C)O1 [Example 129] | 10 to 50
9 | CNc1cncc(C(=O)N2C[C@H](Nc3c(C(=O)N4C[C@@H](C)O[C@@H](C)C4)cc(Br)cc3[N+](=O)[O-])C[C@H]2C(=O)Nc2nn(CCOC)cc2Br)c1 [Example 418, (2S,4R)-4-((4-bromo-2-((2R,6S)-2,6-dimethylmorpholin-4-carbonyl)-6-nitrophenyl)amino)-1-(5-(methylamino)nicotinoyl)-N-(4-bromo-1-(2-methoxyethyl)-1H-pyrazol-3-yl) pyrrolidine-2-formamide] | 50 to 100
10 | CNc1cncc(C(=O)N2CCC[C@@H](Nc3c(C(=O)N4CCC5(CCOCC5)CC4)cc(Br)cc3[N+](=O)[O-])C2)c1 [Example 250] | 10 to 50
11 | O=C(c1cncc(Br)c1)N1CCC[C@@H](Nc2c(C(=O)N3CCCCC3)cc(Br)cc2C(F)(F)F)C1 [Example 66] | 10 to 50
12 | O=C(c1cc(Br)cc([N+](=O)[O-])c1N[C@@H]1CCCN(C(=O)c2cc(=O)[nH]c3ccccc23)C1)N1CCC(F)(F)CC1 [Example 54] | 10 to 50
13 | CNc1cncc(C(=O)N2C[C@H](Nc3c(C(=O)N4C[C@@H](C)O[C@@H](C)C4)cc(Br)cc3[N+](=O)[O-])C[C@H]2C(=O)NC2C[C@@H](C)O[C@@H](C)C2)c1 (some centres unmarked) [Example 433] | 100 to 200
14 | CNc1cncc(C(=O)N2CCC[C@@H](Nc3c(C(=O)N4CCOC(C)(C)C4)cc(Br)cc3[N+](=O)[O-])C2)c1 [Example 340] | 10 to 50
15 | O=C(c1cncc(Br)c1)N1CCC[C@@H](Nc2c(C(=O)N3CCC(F)(F)CC3)cc(Br)cc2C(F)(F)F)C1 [Example 49] | 10 to 50
16 | CO[C@H]1CN(C(=O)c2cncc3[nH]cnc23)C[C@@H]1Nc1c(C(=O)N2C[C@@H](C)O[C@@H](C)C2)cc(Br)cc1[N+](=O)[O-] [Example 408] | 10 to 50
17 | CNc1cncc(C(=O)N2CCC[C@@H](Nc3c(C(=O)N4CCO[C@H](CCl)C4)cc(Br)cc3[N+](=O)[O-])C2)c1 [Example 341] | 10 to 50
